pIC50: −log10 of the molar value.

In patent US10913745B2, “Octahydro-pyrrolo[3,4-c]-pyrrole derivatives and analogs thereof as autotaxin inhibitors” (Hoffmann-La Roche Inc., priority 2013, dated 2021) one finds IC50 data, which are given here for four molecules.

This assay addresses ATX (human His-tagged) (Homo sapiens (Human), UniProt Q13822). In words: Human ATX enzyme inhibition assay (fluorescence quenching, MR121 substrate). Particulars: MR121 substrate 1 μM, ATX 30 nM final, 30° C. The class given is biochemical. The method, then: Human ATX Enzyme Inhibition Assay
ATX inhibition was measured by a fluorescence quenching assay using a specifically labeled substrate analogue (MR121 substrate). To obtain this MR121 substrate, BOC and TBS protected 6-amino-hexanoic acid (R)-3-({2-[3-(2-{2-[2-(2-amino-ethoxy)-ethoxy]-ethoxy}-ethoxy)-propionylamino]-ethoxy}-hydroxy-phosphoryloxy)-2-hydroxy-propyl ester (Ferguson et al., Org Lett 2006, 8 (10), 2023) was labeled with MR121 fluorophore (CAS 185308-24-1, 1-(3-carboxypropyl)-11-ethyl-1,2,3,4,8,9,10,11-octahydro-dipyrido[3,2-b:2′,3′-i]phenoxazin-13-ium) on the free amine of the ethanolamine side and then, after deprotection, subsequently with tryptophan on the side of the aminohexanoic acid. Assay working solutions were made as follows: Assay buffer (50 mM Tris-HCl, 140 mM NaCl, 5 mM KCl, 1 mM CaCl2, 1 mM MgCl2, 0.01% Triton-X-100, pH 8.0; ATX solution: ATX (human His-tagged) stock solution (1.08 mg/mL in 20 mM bicine, pH 8.5, 0.15 M NaCl, 10% glycerol, 0.3% CHAPS, 0.02% NaN3), diluted to 1.4-2.5× final concentration in assay buffer; MR121 substrate solution: MR121 substrate stock solution (800 μM MR121 substrate in DMSO), diluted to 2-5× final concentration in assay buffer. Test compounds (10 mM stock in DMSO, 8 μL) were obtained in 384 well sample plates (Corning Costar #3655) and diluted with 8 μL DMSO. Row-wise serial dilutions were made by transferring 8 μL cpd solution to the next row up to row O. The compound and control solutions were mixed five times and 2 μL were transferred to 384 well assay plates (Corning Costar #3702). Then, 15 μL of 41.7 nM ATX solution was added (30 nM final concentration), mixed five times and then incubated for 15 minutes at 30° C. 10 μL of MR121 substrate solution was added (1 μM final concentration), mixed 30 times and then incubated for 15 minutes at 30° C.
Take `CC(=O)Nc1ccc(C(=O)N2C[C@H]3CN(C(=O)OCc4cc(Cl)cc(Cl)c4)C[C@H]3C2)nc1` [Example 2.01, (3aR,6aS)-3,5-Dichlorobenzyl 5-(5-acetamidopicolinoyl)hexahydropyrrolo[3,4-c]pyrrole-2(1H)-carboxylate]: the pIC50 (usually the negative decadic logarithm of the IC50, by convention in mol/L) is 5.82.
In turn, `NS(=O)(=O)c1ccc(C(=O)N2C[C@H]3CN(C(=O)OCc4ccc(OC(F)(F)F)cc4)C[C@H]3C2)cc1` [Example 7.02, (3aR,6aS)-5-(4-sulfamoyl-benzoyl)-hexahydro-pyrrolo[3,4-c]pyrrole-2-carboxylic acid 4-trifluoromethoxy-benzyl ester] showed a negative logarithm of the IC50 (pIC50) of 8.52.
The result for `NS(=O)(=O)c1ccc(C(=O)N2C[C@H]3CN(C(=O)c4ccc(-c5ccc(Cl)cc5)cc4)C[C@H]3C2)cc1` [Example 8.06, 4-[(3 aS,6aR)-5-(4′-chloro-biphenyl-4-carbonyl)-hexahydro-pyrrolo[3,4-c]pyrrole-2-carbonyl]-benzenesulfonamide] reads 8.52; that for `CC(C)(C)C(=O)Nc1cc(C#N)ccc1COC(=O)N1C[C@@H]2CN(C(=O)c3ccc(S(N)(=O)=O)cn3)C[C@H]2C1` [Example 1.26, (3aS,6aS)-5-(5-sulfamoyl-pyridine-2-carbonyl)-hexahydro-pyrrolo[3,4-c]pyrrole-2-carboxylic acid 4-cyano-2-(2,2-dimethyl-propionylamino)-benzyl ester], 8.00.
